# Columns and labels:
# CNT1 [1] = details: Slc28a1+/+ and Slc28a1-/- mice; 12 h starvation
# CNT1 [2] = target: T1, CNT1 (Mus musculus, UniProt E9PXX9); details: Slc28a1+/+ (CNT1 WT) mice, urine, one value per animal; Figure 2D-F source data
# T1 sequence (E9PXX9 1-648): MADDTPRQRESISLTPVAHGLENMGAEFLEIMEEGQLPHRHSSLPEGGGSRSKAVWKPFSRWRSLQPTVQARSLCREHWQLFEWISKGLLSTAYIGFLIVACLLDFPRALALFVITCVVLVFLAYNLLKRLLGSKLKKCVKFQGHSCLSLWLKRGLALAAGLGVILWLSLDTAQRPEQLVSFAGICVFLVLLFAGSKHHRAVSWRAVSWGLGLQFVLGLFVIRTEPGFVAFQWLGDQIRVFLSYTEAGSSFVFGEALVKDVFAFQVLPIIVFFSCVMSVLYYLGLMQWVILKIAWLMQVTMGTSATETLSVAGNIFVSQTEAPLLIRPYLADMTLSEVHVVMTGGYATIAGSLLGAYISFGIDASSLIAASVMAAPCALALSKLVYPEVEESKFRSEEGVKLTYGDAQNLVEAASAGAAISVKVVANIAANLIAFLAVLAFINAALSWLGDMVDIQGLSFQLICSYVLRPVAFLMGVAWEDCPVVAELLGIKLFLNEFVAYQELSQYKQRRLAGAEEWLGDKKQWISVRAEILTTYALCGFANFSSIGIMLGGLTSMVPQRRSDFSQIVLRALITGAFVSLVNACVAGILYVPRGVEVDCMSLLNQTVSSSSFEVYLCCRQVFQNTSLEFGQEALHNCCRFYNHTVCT
compound,measurement,setting,value
Nc1ncnc2c1ncn2[C@H]1C[C@H](O)[C@@H](CO)O1 [deoxyadenosine],Concentration in urine,CNT1 [1],undetectable
same,"Urine level of nucleoside / deoxynucleoside / nucleobase, CNT1 WT Urine (individual mice)",CNT1 [2],0

# Reference: article PMC10235067, “Increased renal elimination of endogenous and synthetic pyrimidine nucleosides in concentrative nucleoside transporter 1 deficient mice” (Nature Communications, 2023)
